Results published in patent US20250144067A1, “PERSONALIZED STARVATION THERAPY FOR CANCER” (Faeth Therapeutics, Inc., priority 2021, published 2025).
Structures can show the parent of a compound that is named as a salt. Where two headings read alike, the source gives them in different places.

Key:
[1] = system: NCI-H292 lung cancer cells; experiment: FDA drug screening, complete media vs cholesterol-free media with simvastatin (TABLE 2); type: cell-based, human
[2] = system: NCI-H292 lung cancer cells; experiment: FDA drug screening, complete media vs cholesterol-free media without statin (TABLE 1); type: cell-based, human
[3] = NCI-H292 cells, drug in cholesterol-free media with simvastatin 0.04 μM
[4] = NCI-H292 cells, drug in complete media
[5] = complete media vs cholesterol-free media + simvastatin (0.04 μM), >0 enhanced anti-cancer activity, about 0 neutral, <0 antagonist
[6] = NCI-H292 cells, cholesterol-free media without statin, FDA drug library screen
[7] = NCI-H292 cells, complete media, FDA drug library screen
[8] = complete vs cholesterol-free media, >0 enhanced anti-cancer activity, about 0 neutral, <0 antagonist
[9] = NCI-H292 cells, FDA drug library screen, cholesterol-free media with simvastatin 0.04 μM
[10] = NCI-H292 cells, FDA drug library screen, complete media
[11] = complete media minus cholesterol-free media + simvastatin, >0 enhanced anti-cancer activity, about 0 neutral, <0 antagonist
[12] = NCI-H292 cells, cholesterol-free media without statin
[13] = complete vs cholesterol-free media, greater than 0 enhanced anti-cancer activity, about 0 neutral, below 0 antagonists
[14] = NCI-H292 cells, FDA library drug in cholesterol-free media with simvastatin 0.04 μM
[15] = NCI-H292 cells, FDA library drug in complete media
[16] = Complete minus Cholesterol-free, greater than 0 enhanced anti-cancer activity, about 0 neutral, below 0 antagonists
[17] = NCI-H292 cells in cholesterol-free media without statin
[18] = NCI-H292 cells in complete media
[19] = NCI-H292 cells, cholesterol-free media with simvastatin 0.04 μM, cell growth value in FDA drug screen
[20] = NCI-H292 cells, complete media, cell growth value in FDA drug screen
[21] = NCI-H292 cells, cholesterol-free media with simvastatin 0.04 μM, FDA drug library screen (TABLE 2)
[22] = NCI-H292 cells, complete media, FDA drug library screen (TABLE 2)
[23] = Complete minus Cholesterol-free, >0 enhanced anti-cancer activity, about 0 neutral, <0 antagonist
[24] = Complete minus Cholesterol-free, greater than 0 enhanced anti-cancer activity, about 0 neutral, below 0 antagonist
[25] = NCI-H292 cells, FDA drug library screen, cholesterol-free media without statin
[26] = complete media minus cholesterol-free media + simvastatin (0.04 μM), >0 enhanced anti-cancer activity, about 0 neutral, <0 antagonist

CC1(C)C[C@@H]1C(=O)N/C(=C\CCCCSC[C@H](N)C(=O)O)C(=O)O [Cilastatin]
Cholesterol-free media + simvastatin (0.04 μM) [1]: 1.258
Complete Media [1]: 0.85
Difference [1]: −0.41
Cholesterol-free [2]: 1.185
Complete [2]: 0.8515
Difference [2]: −0.33

CCOC(=O)[C@H](CCc1ccccc1)N[C@H]1CCCN2CCC[C@@H](C(=O)O)N2C1=O [Cilazapril (monohydrate)]
Cholesterol-free media + simvastatin (0.04 μM) [1, 3]: 1.266
Complete Media [1, 4]: 1.104
Difference [1, 5]: −0.16
Cholesterol-free [2, 6]: 0.8411
Complete [2, 7]: 0.9896
Difference [2, 8]: 0.15

COCCOC(=O)C1=C(C)NC(C)=C(C(=O)OC/C=C/c2ccccc2)C1c1cccc([N+](=O)[O-])c1 (stereo not shown) [Cilnidipine]
Cholesterol-free media + simvastatin (0.04 μM) [1, 3]: 0.9073
Complete Media [1, 4]: 0.7251
Difference [1, 5]: −0.18
Cholesterol-free [2, 6]: 1.441
Complete [2, 7]: 1.574
Difference [2, 8]: 0.13

O=C1CCc2cc(OCCCCc3nnnn3C3CCCCC3)ccc2N1 [Cilostazol]
Cholesterol-free media + simvastatin (0.04 μM) [1, 9]: 0.8234
Complete Media [1, 10]: 0.9809
Difference [1, 11]: 0.16
Cholesterol-free [2, 12]: 1.501
Difference [2, 13]: −0.33

CN/C(=N/CCSCc1nc[nH]c1C)NC#N [Cimetidine]
Cholesterol-free media + simvastatin (0.04 μM) [1, 14]: 1.358
Complete Media [1, 15]: 0.952
Difference [1, 5]: −0.41
Difference [2, 16]: −0.70
Cholesterol-free [2, 17]: 1.504
Complete [2, 18]: 0.8083

C[N+]1(CC2CC2)[C@@H]2C[C@@H](OC(=O)[C@H](CO)c3ccccc3)C[C@H]1[C@@H]1O[C@@H]12.[Br-] (stereo partly shown) [Cimetropium (Bromide)]
Cholesterol-free media + simvastatin (0.04 μM) [1]: 1.704
Complete Media [1]: 1.429
Difference [1]: −0.28
Cholesterol-free [2]: 0.8786
Complete [2]: 0.8182
Difference [2]: −0.06

C[C@@H](NCCCc1cccc(C(F)(F)F)c1)c1cccc2ccccc12 [Cinacalcet (hydrochloride)]
Cholesterol-free media + simvastatin (0.04 μM) [1, 19]: 0.9304
Complete Media [1, 20]: 0.9877
Difference [1, 11]: 0.06
Cholesterol-free [2, 12]: 1.099
Complete ([2]; NCI-H292 cells, complete media): 0.7862
Difference [2, 13]: −0.31

C[C@@H](NCCCc1cccc(C(F)(F)F)c1)c1cccc2ccccc12 [Cinacalcet]
Cholesterol-free media + simvastatin (0.04 μM) [1, 19]: 0.8605
Complete Media [1, 20]: 0.9247
Difference [1, 11]: 0.06
Cholesterol-free [2, 6]: 0.8181
Complete [2, 7]: 1.378
Difference [2, 8]: 0.56

C(=C\c1ccccc1)/CN1CCN(C(c2ccccc2)c2ccccc2)CC1 [Cinnarizine]
Cholesterol-free media + simvastatin (0.04 μM) [1, 19]: 1.061
Difference [1, 11]: 0.11
Cholesterol-free [2, 12]: 1.344
Complete ([2]; NCI-H292 cells, complete media): 0.9213
Difference [2, 13]: −0.42

CC(=O)O[C@H]1[C@H]2O[C@]23[C@@H]2CC[C@]4(O)C[C@@H](O)CC[C@]4(C)[C@H]2CC[C@]3(C)[C@H]1c1ccc(=O)oc1 [Cinobufotalin]
Cholesterol-free media + simvastatin (0.04 μM) [1, 21]: 0.03115
Complete Media [1, 22]: 0.01046
Difference ([1]; complete media minus cholesterol-free media + simvastatin (0.04 μM), […]): −0.02
Difference ([2]; Complete minus Cholesterol-free, […]): −0.04
Cholesterol-free [2, 6]: 0.003242
Complete [2, 7]: −0.03407

CCn1nc(C(=O)O)c(=O)c2cc3c(cc21)OCO3 [Cinoxacin]
Cholesterol-free media + simvastatin (0.04 μM) [1, 19]: 0.9547
Complete Media [1, 20]: 0.9782
Difference [1, 11]: 0.02
Difference [2, 23]: −0.05
Cholesterol-free [2, 6]: 0.9965
Complete [2, 7]: 0.951

CC(C)(Oc1ccc(C2CC2(Cl)Cl)cc1)C(=O)O (stereo not shown) [Ciprofibrate]
Cholesterol-free media + simvastatin (0.04 μM) [1, 14]: 1.569
Complete Media [1, 15]: 1.161
Difference [1, 5]: −0.41
Difference [2, 24]: −0.11
Cholesterol-free [2, 25]: 1.09
Complete [2, 10]: 0.9746

O=C(O)c1cn(C2CC2)c2cc(N3CCNCC3)c(F)cc2c1=O [Ciprofloxacin]
Cholesterol-free media + simvastatin (0.04 μM) [1, 19]: 0.9642
Complete Media [1, 20]: 1.043
Difference [1, 11]: 0.08
Cholesterol-free [2, 12]: 1.503
Complete ([2]; NCI-H292 cells, complete media): 1.066
Difference [2, 13]: −0.44

COc1cc(N)c(Cl)cc1C(=O)NC1CCN(CCCOc2ccc(F)cc2)CC1OC (stereo not shown) [Cisapride]
Cholesterol-free media + simvastatin (0.04 μM) [1, 9]: 1.001
Complete Media [1, 10]: 0.8916
Difference [1, 5]: −0.11
Difference [2, 16]: −0.91
Cholesterol-free [2, 17]: 1.595
Complete [2, 18]: 0.6865

CN(C)CCCC1(c2ccc(F)cc2)OCc2cc(C#N)ccc21 (stereo not shown) [Citalopram (hydrobromide)]
Cholesterol-free media + simvastatin (0.04 μM) [1, 14]: 1.457
Complete Media [1, 15]: 0.8476
Difference [1, 5]: −0.61
Cholesterol-free [2, 6]: 0.8091
Complete [2, 7]: 1.106
Difference [2, 8]: 0.30

C[N+](C)(C)CCOP(=O)([O-])OP(=O)([O-])OC[C@H]1O[C@@H](n2ccc(N)nc2=O)[C@H](O)[C@@H]1O.[Na+] [Citicoline (sodium)]
Cholesterol-free media + simvastatin (0.04 μM) [1, 21]: 1.337
Complete Media [1, 22]: 1.292
Difference [1, 26]: −0.04
Cholesterol-free [2, 12]: 1.151
Complete ([2]; NCI-H292 cells, complete media): 0.8125
Difference [2, 13]: −0.34

C[N+](C)(C)CCOP(=O)(O)OP(=O)([O-])OC[C@H]1O[C@@H](n2ccc(N)nc2=O)[C@H](O)[C@@H]1O [Citicoline]
Cholesterol-free media + simvastatin (0.04 μM) [1, 9]: 0.6677
Complete Media [1, 10]: 1.557
Difference [1, 11]: 0.89
Cholesterol-free [2, 6]: 0.7726
Complete [2, 7]: 1.062
Difference [2, 8]: 0.29

O=C(O)CC(O)(CC(=O)O)C(=O)O [Citric acid]
Cholesterol-free media + simvastatin (0.04 μM) [1, 21]: 1.227
Complete Media [1, 22]: 1.209
Difference [1, 26]: −0.02
Difference [2, 24]: −0.17
Cholesterol-free [2, 25]: 0.92
Complete [2, 10]: 0.7466

Nc1nc(Cl)nc2c1ncn2[C@H]1C[C@H](O)[C@@H](CO)O1 [Cladribine]
Cholesterol-free media + simvastatin (0.04 μM) [1, 9]: 0.1545
Complete Media [1, 10]: 0.02741
Difference [1, 5]: −0.13
Difference [2, 23]: 0.07
Cholesterol-free [2, 6]: −0.008506
Complete [2, 7]: 0.0649

CC[C@H]1OC(=O)[C@H](C)[C@@H](O[C@H]2C[C@@](C)(OC)[C@@H](O)[C@H](C)O2)[C@H](C)[C@@H](O[C@@H]2O[C@H](C)C[C@H](N(C)C)[C@H]2O)[C@](C)(OC)C[C@@H](C)C(=O)[C@H](C)[C@@H](O)[C@]1(C)O [Clarithromycin]
Cholesterol-free media + simvastatin (0.04 μM) [1, 9]: 1.214
Complete Media [1, 10]: 1.064
Difference [1, 5]: −0.15
Difference [2, 16]: −0.74
Cholesterol-free [2, 17]: 1.607
Complete [2, 18]: 0.8616

O=C(O)[C@H]1/C(=C/CO)O[C@@H]2CC(=O)N21 [Clavulanate (lithium)]
Cholesterol-free media + simvastatin (0.04 μM) [1, 14]: 1.974
Complete Media [1, 15]: 1.387
Difference [1, 5]: −0.59
Difference [2, 23]: 0.07
Cholesterol-free [2, 6]: 1.545
Complete [2, 7]: 1.617

Clc1ccc(Cn2c(CN3CCCC3)nc3ccccc32)cc1 [Clemizole (hydrochloride)]
Cholesterol-free media + simvastatin (0.04 μM) [1, 19]: 0.9553
Complete Media [1, 20]: 1.07
Difference [1, 11]: 0.11
Difference [2, 24]: −0.11
Cholesterol-free [2, 25]: 1.125
Complete [2, 10]: 1.013

CCCC(=O)OCOC(=O)C1=C(C)NC(C)=C(C(=O)OC)C1c1cccc(Cl)c1Cl (stereo not shown) [Clevidipine]
Cholesterol-free media + simvastatin (0.04 μM) [1, 19]: 0.8061
Complete Media [1, 20]: 0.9036
Difference [1, 11]: 0.10
Cholesterol-free [2, 12]: 1.292
Complete ([2]; NCI-H292 cells, complete media): 0.9289
Difference [2, 13]: −0.36
